One may read the cell viability as a per cent measure of how many cells are alive, often set against a control. A lower cell viability goes with more harm to the cells.

Type in all cases: cell-based, human
For data set [1], the system named is HUVECs. Nature of the data set: Cytotoxicity testing of peptides in HUVECs (CCK-8). Particulars: for toxicity to HUVECs (in words): concentration range 3.9–1000 μg/mL; for toxicity to HUVECs (in words) / cytotoxicity to HUVECs (in words) / effect on HUVEC growth (in words): 24 h, CCK-8; for effect on HUVEC viability (in words): vs control p < 0.01; for effect on HUVEC growth (in words): within 3.9–1000 μg/mL. Here is the method:
Peptide cytotoxicity in HUVECs was assessed using the CCK‐8 assay to determine cell viability (Suo et al. [2022]). HUVECs were digested with 0.25% trypsin, resuspended in RPMI 1640 complete medium containing 10% FBS at a density of 5 × 10^4 cells/mL, and seeded into 96‐well plates at 100 μL/well. Cells were incubated in a CO2 incubator (37°C, 5% CO2) for 12 h.
Control and experimental groups were established with six replicates each. After cell adhesion, 10 μL of peptide solution was added to the experimental groups at final concentrations of 3.9, 7.8, 15.6, 31.25, 62.5, 125, 250, 500, and 1000 μg/mL, whereas the control group received an equivalent volume of complete medium. After 24 h of incubation in the CO2 incubator, 10 μL of CCK‐8 solution was added to each well, and cells were incubated for 1 h. Optical density (OD) was measured at 450 nm using an Infinite M1000 Pro microplate reader (Tecan, Switzerland). Cell viability was calculated using the following formula: Cell Viability%=AS−AO/AC−AO×100% where A C represents the OD of the control group, A S indicates the OD of the experimental group, and A O is the OD of the blank wells.

In data set [2] the test system is HUVECs damaged by AAPH. As to conditions: at different concentrations, 6 mmol/L AAPH model, p > 0.05. The procedure:
The experiment included control, model, and experimental groups. HUVECs were seeded into 96‐well plates at a density of 5 × 10^4 cells/mL at 100 μL per well, with six replicates per group. After cell adhesion, the model and experimental groups were treated with 10 μL of AAPH solution to a final concentration of 6 mmol/L, whereas the control group received an equivalent volume of medium. After 24 h, the experimental groups were treated with 10 μL of peptide solutions to final concentrations of 3.9, 7.8, 15.6, 31.25, 62.5, 125, 250, 500, and 1000 μg/mL. The control and model groups received an equivalent volume of medium.

Data set [3] deals with HUVECs. Nature of the data set: Establishment of the AAPH-induced HUVEC oxidative damage model (CCK-8 viability). As to conditions: 24 h; for cell survival rate: CCK-8. The procedure:
The oxidative damage model was established using the method described by Li et al. ([2023]). HUVECs were seeded into 96‐well plates at a density of 5 × 10^4 cells/mL at 100 μL/well and incubated in a CO2 incubator (37°C, 5% CO2) for 12 h.

Data set [4] has as its system HUVECs damaged by AAPH. Nature of the data set: ROS levels in AAPH-damaged HUVECs (DCFH-DA). Particulars: 24 h after 6 mmol/L AAPH 24 h, DCFH-DA fluorescence. Here is the method:
Model and experimental groups were established, and HUVECs were seeded into 96-well plates at a density of 5 × 10^4 cells/mL at 100 μL/well, with six replicates per group. After cell adhesion, the control group received the medium, whereas the model and experimental groups were treated with 10 μL of AAPH solution to a final concentration of 6 mmol/L. After 24 h of incubation, experimental groups were treated with 10 μL of peptide […] at final concentrations of 250, 500, and 1000 μg/mL. The control and model groups received an equivalent volume of the medium. After another 24 h of incubation, ROS levels were measured according to the instructions of the ROS detection kit. Cells were washed twice with PBS, treated with 10 μL of 10 μmol/L DCFH-DA working solution, and incubated in the dark for 30 min in the CO2 incubator (37°C, 5% CO2). The cells were then washed three times with PBS, and the fluorescence intensity was measured using an Infinite […] microplate reader (Tecan, Switzerland).

Data set [5] has as its system HUVECs damaged by AAPH. Description: GSH content in AAPH-damaged HUVECs. As to conditions: 250, 500, and 1000 μg/mL, 24 h after 6 mmol/L AAPH 24 h; p < 0.05; three replicates. The procedure: (§1) The model and experimental groups were established, and HUVECs were seeded into 6-well plates at a density of 5 × 10^4 cells/mL at 2 mL/well, with three replicates per group. After cell adhesion, the model and experimental groups were treated with 2 mL of AAPH solution at a final concentration of 6 mmol/L, whereas the control group received an equivalent volume of the medium. After 24 h of incubation, experimental groups were treated with 200 μL of peptide […] at a final concentration of 250, 500, and 1000 μg/mL. The control and model groups received an equivalent volume of the medium. After 24 h incubation, the cells were collected, and the protein content was measured using the BCA protein assay kit. The activities of SOD, CAT, and GSH were determined using the respective assay kits.

Data set [6] has as its system HUVECs damaged by AAPH. Description: SOD activity in AAPH-damaged HUVECs. As to conditions: 250, 500, and 1000 μg/mL, 24 h after 6 mmol/L AAPH 24 h; p < 0.05; three replicates. The procedure:
as §1

Data set [7] relates to HUVECs damaged by AAPH. Nature of the data set: CAT activity in AAPH-damaged HUVECs. As to conditions: 250, 500, and 1000 μg/mL, 24 h after 6 mmol/L AAPH 24 h; p < 0.05; three replicates. The procedure: as §1
The mark [8] stands for this setting: concentrations of 3.9–500 μg/mL.

Peptide text beside a SMILES is read from it. A value given as a limit tells only on which side of the number the result lay.

Regarding `CSCC[C@H](NC(=O)[C@H](Cc1ccc(O)cc1)NC(=O)CNC(=O)[C@H](CCSC)NC(=O)[C@@H](NC(=O)[C@H](CO)NC(=O)[C@@H](NC(=O)[C@@H](N)CC(=O)O)[C@@H](C)O)[C@@H](C)O)C(=O)N[C@@H](C)C(=O)N[C@@H](C)C(=O)N[C@@H](CCCCN)C(=O)O` [DTSTMGYMAAK] (H-DTSTMGYMAAK-OH; N-terminus and C-terminus assumed), the “toxicity to HUVECs (in words)” value in the data set on HUVECs [1] is on record as “no toxicity”. For the same compound, in the data set with HUVECs damaged by AAPH [2], the “cell viability compared with the model group (in words)” value is “did not show significant differences”.

With `NCC(=O)N[C@@H](CCC(=O)O)C(=O)N[C@@H](Cc1ccc(O)cc1)C(=O)N[C@@H](CCC(N)=O)C(=O)O` [GEYQ] (H-GEYQ-OH; N-terminus and C-terminus assumed), in the data set with HUVECs [1] (3.9–62.5 μg/mL), the “effect on HUVEC viability (in words)” value is listed as “clear inhibitory effect”.

As to `CC[C@H](C)[C@H](NC(=O)[C@H](Cc1c[nH]cn1)NC(=O)CNC(=O)[C@@H](N)Cc1ccccc1)C(=O)N[C@@H](CO)C(=O)N[C@H](C(=O)O)C(C)C` [FGHISV] (H-FGHISV-OH; N-terminus and C-terminus assumed), in the data set with HUVECs [1] (setting [8]), the “cytotoxicity to HUVECs (in words)” value is “no cytotoxicity”. Also, the “cell viability compared with the model group (in words)” value with HUVECs damaged by AAPH [2] is listed as “did not show significant differences”.

In the case of `C[C@H](NC(=O)[C@@H](N)CC(=O)O)C(=O)N[C@@H](CO)C(=O)N[C@@H](CS)C(=O)N[C@@H](CCCCN)C(=O)O` [DASCK] (H-DASCK-OH; N-terminus and C-terminus assumed), in the data set on HUVECs [1], the “toxicity to HUVECs (in words)” value is “no toxicity” and the “effect on HUVEC growth (in words)” value is reported as “promoted cell growth”.

In the case of `CC(C)[C@H](NC(=O)[C@H](CCC(=O)O)NC(=O)[C@H](CCC(=O)O)NC(=O)[C@@H](NC(=O)[C@@H](NC(=O)[C@H](CCC(=O)O)NC(=O)[C@@H]1CCCN1C(=O)[C@H](CCC(=O)O)NC(=O)[C@@H](N)Cc1ccccc1)[C@@H](C)O)[C@@H](C)O)C(=O)N[C@@H](CCCNC(=N)N)C(=O)O` [FEPETTEEVR] (H-FEPETTEEVR-OH; N-terminus and C-terminus assumed), in the data set with HUVECs [1], the “toxicity to HUVECs (in words)” value is given as “no toxicity” and the “effect on HUVEC growth (in words)” value is on record as “promoted cell growth”.

On to `CC[C@H](C)[C@H](NC(=O)[C@H](CC(=O)O)NC(=O)[C@@H](N)CC(=O)O)C(=O)N[C@@H](CCSC)C(=O)N[C@@H](CCC(=O)O)C(=O)N[C@@H](CC(=O)O)C(=O)N[C@@H](CCCCN)C(=O)N[C@@H](CC(=O)O)C(=O)N[C@@H](CC(N)=O)C(=O)N[C@@H](Cc1ccccc1)C(=O)O` [DDIMEDKDNF] (H-DDIMEDKDNF-OH; N-terminus and C-terminus assumed), for which the “cytotoxicity to HUVECs (in words)” value with HUVECs [1] (3.9–250 μg/mL) was “nontoxic”.

In the case of `N[C@@H](CCC(=O)O)C(=O)N[C@@H](CC(=O)O)C(=O)N[C@@H](CCC(=O)O)C(=O)O` [EDE] (H-Glu-Asp-Glu-OH; N-terminus and C-terminus assumed), the “effect on HUVEC growth (in words)” value with HUVECs [1] was “promoted cell growth”. In addition, in the data set with HUVECs damaged by AAPH [2], the “cell viability compared with the model group (in words)” value is “did not show significant differences”.

With `CC[C@H](C)[C@H](NC(=O)[C@H](CCC(=O)O)NC(=O)[C@H](CCSC)NC(=O)[C@@H]1CCCN1C(=O)[C@@H](NC(=O)[C@H](Cc1c[nH]cn1)NC(=O)[C@H](CC(N)=O)NC(=O)[C@H](CO)NC(=O)[C@H](CCC(N)=O)NC(=O)[C@H](CO)NC(=O)[C@@H](NC(=O)[C@H](Cc1c[nH]c2ccccc12)NC(=O)[C@@H](NC(=O)[C@@H](N)Cc1ccccc1)[C@@H](C)O)C(C)C)[C@@H](C)CC)C(=O)N[C@@H](CCC(=O)O)C(=O)N[C@@H](CCC(=O)O)C(=O)N[C@@H](CC(=O)O)C(=O)N[C@@H](CO)C(=O)N[C@@H](C)C(=O)N[C@@H](CCCCN)C(=O)N1CCC[C@H]1C(=O)N[C@@H](Cc1c[nH]c2ccccc12)C(=O)N[C@@H](CC(C)C)C(=O)O` (H-FTWVSQSNHIPMEIEEDSAKPWL-OH; N-terminus and C-terminus assumed), the “effect on HUVEC viability (in words)” value in the data set on HUVECs [1] (31.25–1000 μg/mL) is “clear inhibitory effect”.

For `CC(C)[C@H](NC(=O)[C@H](C)N)C(=O)N[C@H](C(=O)N[C@@H](CCC(=O)O)C(=O)N[C@@H](CO)C(=O)N[C@@H](CCCCN)C(=O)O)C(C)C` [AVVESK] (H-AVVESK-OH; N-terminus and C-terminus assumed), the “cytotoxicity to HUVECs (in words)” value in the data set on HUVECs [1] (setting [8]) is given as “no cytotoxicity”.

As to `CC(C)(N=NC(C)(C)C(=N)N)C(=N)N.Cl.Cl` [AAPH, 2,2′‐azobis(2‐methylpropionamidine) dihydrochloride], the cell survival rate in the data set on HUVECs [3] (AAPH 4 mmol/L) was 92.64% ± 0.06%; in the data set on HUVECs [3] (AAPH 6 mmol/L), 87.35% ± 0.05%; in the data set on HUVECs [3] (AAPH 8 mmol/L), 78.64% ± 0.03%; in the data set on HUVECs [3] (AAPH 10 mmol/L), 43.10% ± 0.04%; in the data set with HUVECs [3] (AAPH 12 mmol/L), 5.07% ± 0.01%. The cell viability in the data set with HUVECs [3] (AAPH 0.25, 0.5, 1, and 2 mmol/L, significantly higher than control (p < 0.01)) was greater than 100%.

For `NCCCC[C@H](NC(=O)[C@H](CC(=O)O)NC(=O)[C@H](CCC(=O)O)NC(=O)[C@H](CC(=O)O)NC(=O)[C@H](CCC(=O)O)NC(=O)[C@H](CC(=O)O)NC(=O)[C@H](CCC(=O)O)NC(=O)[C@@H](N)CC(=O)O)C(=O)O` [DEDEDEDK] (H-DEDEDEDK-OH; N-terminus and C-terminus assumed), in the data set on HUVECs [1], the “effect on HUVEC growth (in words)” value is reported as “promoted cell growth”. For the same compound, the “ROS content compared with the model group (in words)” value with HUVECs damaged by AAPH [4] (DEDEDEDK 1000 μg/mL, p < 0.05) is given as “significantly reduced”. In the data set on HUVECs damaged by AAPH [4] (DEDEDEDK 250 and 500 μg/mL, p > 0.05), the “ROS levels compared with the model group (in words)” value is “no significant change”. For the same compound, the “GSH content in the cells vs model group (in words)” value in the data set with HUVECs damaged by AAPH [5] was “significantly increased”. In the data set on HUVECs damaged by AAPH [6], the “SOD activity in the cells vs model group (in words)” value is on record as “increased significantly”. The “CAT activity in the cells vs model group (in words)” value in the data set with HUVECs damaged by AAPH [7] was “increased significantly”.

Source of the values: article PMC11807725, “Screening and Antioxidant Activities Evaluation of Peptides From Abalone (Haliotis discus hannai Ino)” (Food Science & Nutrition, 2025).
